pIC50: −log10 of the molar value.
Test system: SW1271 complex spheroids with HUVEC/MSC, growth, % test/control
Experiment: Anticancer human tumor SW1271 cell line growth inhibition [AhR];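 further: spheroids exposed to agents for 7 days before readout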
Conditions: for pIC50: curve of first compound; for viability, T/C: stronger effect = lower value
In short: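 Complex tumor spheroids co-cultured with HUVEC and human MSC stroma; AhR antagonists tested in combination with standard-of-care and investigational agents. Top concentration at or near clinical Cmax (else 10 microM), half-log dilutions; growth expressed as percent test/control.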

Q: With `CC1(C)CCC(CN2CCN(c3ccc(C(=O)NS(=O)(=O)c4ccc(NCC5CCOCC5)c([N+](=O)[O-])c4)c(Oc4cnc5[nH]ccc5c4)c3)CC2)=C(c2ccc(Cl)cc2)C1` + Cc1cncc(-c2nc(NCCc3c[nH]c4ccccc34)c3ncn(C(C)C)c3n2)c1 as the compound, how does the pIC50 (second compound 0.1 µM) read?
A: < 5.00

Q: And the pIC50 (second compound 0.316 µM)?
A: < 5.00

Q: What about the pIC50 (second compound 1 µM) of the same compound?
A: < 5.00

Q: And the pIC50 (second compound 3.16 µM)?
A: < 5.00

Q: What about the pIC50 (second compound 10 µM) of the same compound?
A: > 7.50

Q: What about the viability, T/C (second compound 0.1 µM, first compound 0.0316 µM) of the same compound?
A: 101%

Q: What about the viability, T/C (second compound 0.1 µM, first compound 0.1 µM) of the same compound?
A: 92.7%

Q: What about the viability, T/C (second compound 0.1 µM, first compound 0.316 µM) of the same compound?
A: 101%

Q: And the viability, T/C (second compound 0.1 µM, first compound 1 µM)?
A: 116%

Q: And the viability, T/C (second compound 0.1 µM, first compound 3.16 µM)?
A: 131%

Q: What about the viability, T/C (second compound 0.1 µM, first compound 10 µM) of the same compound?
A: 95.7%

Q: And the viability, T/C (second compound 0.316 µM, first compound 0.0316 µM)?
A: 95%

Q: And the viability, T/C (second compound 0.316 µM, first compound 0.1 µM)?
A: 93.3%

Q: What about the viability, T/C (second compound 0.316 µM, first compound 0.316 µM) of the same compound?
A: 102%

Q: And the viability, T/C (second compound 0.316 µM, first compound 1 µM)?
A: 88.4%

Q: What about the viability, T/C (second compound 0.316 µM, first compound 3.16 µM) of the same compound?
A: 101%

Q: What about the viability, T/C (second compound 0.316 µM, first compound 10 µM) of the same compound?
A: 125%

Q: And the viability, T/C (second compound 1 µM, first compound 0.0316 µM)?
A: 95.5%

Q: What about the viability, T/C (second compound 1 µM, first compound 0.1 µM) of the same compound?
A: 79.8%

Q: What about the viability, T/C (second compound 1 µM, first compound 0.316 µM) of the same compound?
A: 104%

Q: What about the viability, T/C (second compound 1 µM, first compound 1 µM) of the same compound?
A: 90.5%

Q: What about the viability, T/C (second compound 1 µM, first compound 3.16 µM) of the same compound?
A: 111%

Q: And the viability, T/C (second compound 1 µM, first compound 10 µM)?
A: 102%

Q: What about the viability, T/C (second compound 3.16 µM, first compound 0.0316 µM) of the same compound?
A: 120%

Q: What about the viability, T/C (second compound 3.16 µM, first compound 0.1 µM) of the same compound?
A: 98.5%

Q: What about the viability, T/C (second compound 3.16 µM, first compound 0.316 µM) of the same compound?
A: 102%

Q: What about the viability, T/C (second compound 3.16 µM, first compound 1 µM) of the same compound?
A: 94.7%

Q: And the viability, T/C (second compound 3.16 µM, first compound 3.16 µM)?
A: 115%

Q: What about the viability, T/C (second compound 3.16 µM, first compound 10 µM) of the same compound?
A: 110%

Q: What about the viability, T/C (second compound 10 µM, first compound 0.0316 µM) of the same compound?
A: 36.9%

Q: And the viability, T/C (second compound 10 µM, first compound 0.1 µM)?
A: 46%

Q: What about the viability, T/C (second compound 10 µM, first compound 0.316 µM) of the same compound?
A: 49.5%

Q: What about the viability, T/C (second compound 10 µM, first compound 1 µM) of the same compound?
A: 33.6%

Q: What about the viability, T/C (second compound 10 µM, first compound 3.16 µM) of the same compound?
A: 48.9%

Q: And the viability, T/C (second compound 10 µM, first compound 10 µM)?
A: 44.9%

Q: How did the pIC50 (second compound 0.1 µM) turn out when `CCN(c1cc(-c2ccc(CN3CCOCC3)cc2)cc(C(=O)NCc2c(C)cc(C)[nH]c2=O)c1C)C1CCOCC1` + Cc1cncc(-c2nc(NCCc3c[nH]c4ccccc34)c3ncn(C(C)C)c3n2)c1 was run?
A: < 5.52

Q: And the pIC50 (second compound 0.316 µM)?
A: < 5.52

Q: And the pIC50 (second compound 1 µM)?
A: < 5.52

Q: And the pIC50 (second compound 3.16 µM)?
A: < 5.52

Q: And the pIC50 (second compound 10 µM)?
A: > 8.02

Q: What about the viability, T/C (second compound 0.1 µM, first compound 0.00949 µM) of the same compound?
A: 81%

Q: And the viability, T/C (second compound 0.1 µM, first compound 0.03 µM)?
A: 100%

Q: And the viability, T/C (second compound 0.1 µM, first compound 0.0949 µM)?
A: 108%

Q: And the viability, T/C (second compound 0.1 µM, first compound 0.3 µM)?
A: 97.5%

Q: And the viability, T/C (second compound 0.1 µM, first compound 0.949 µM)?
A: 99.7%

Q: What about the viability, T/C (second compound 0.1 µM, first compound 3 µM) of the same compound?
A: 118%

Q: What about the viability, T/C (second compound 0.316 µM, first compound 0.00949 µM) of the same compound?
A: 99%

Q: What about the viability, T/C (second compound 0.316 µM, first compound 0.03 µM) of the same compound?
A: 105%

Q: And the viability, T/C (second compound 0.316 µM, first compound 0.0949 µM)?
A: 103%

Q: What about the viability, T/C (second compound 0.316 µM, first compound 0.3 µM) of the same compound?
A: 124%

Q: What about the viability, T/C (second compound 0.316 µM, first compound 0.949 µM) of the same compound?
A: 106%

Q: What about the viability, T/C (second compound 0.316 µM, first compound 3 µM) of the same compound?
A: 115%

Q: And the viability, T/C (second compound 1 µM, first compound 0.00949 µM)?
A: 94.6%

Q: And the viability, T/C (second compound 1 µM, first compound 0.03 µM)?
A: 112%

Q: What about the viability, T/C (second compound 1 µM, first compound 0.0949 µM) of the same compound?
A: 118%

Q: And the viability, T/C (second compound 1 µM, first compound 0.3 µM)?
A: 94.1%

Q: And the viability, T/C (second compound 1 µM, first compound 0.949 µM)?
A: 106%

Q: What about the viability, T/C (second compound 1 µM, first compound 3 µM) of the same compound?
A: 110%

Q: What about the viability, T/C (second compound 3.16 µM, first compound 0.00949 µM) of the same compound?
A: 101%

Q: And the viability, T/C (second compound 3.16 µM, first compound 0.03 µM)?
A: 109%

Q: And the viability, T/C (second compound 3.16 µM, first compound 0.0949 µM)?
A: 97%

Q: What about the viability, T/C (second compound 3.16 µM, first compound 0.3 µM) of the same compound?
A: 87.9%

Q: And the viability, T/C (second compound 3.16 µM, first compound 0.949 µM)?
A: 96%

Q: And the viability, T/C (second compound 3.16 µM, first compound 3 µM)?
A: 91.2%

Q: And the viability, T/C (second compound 10 µM, first compound 0.00949 µM)?
A: 48.8%

Q: What about the viability, T/C (second compound 10 µM, first compound 0.03 µM) of the same compound?
A: 46.5%

Q: What about the viability, T/C (second compound 10 µM, first compound 0.0949 µM) of the same compound?
A: 45.2%

Q: What about the viability, T/C (second compound 10 µM, first compound 0.3 µM) of the same compound?
A: 38.3%

Q: And the viability, T/C (second compound 10 µM, first compound 0.949 µM)?
A: 27.5%

Q: And the viability, T/C (second compound 10 µM, first compound 3 µM)?
A: 6.84%

Reference: PubChem BioAssay AID1919017 (Molecular Pharmacology Branch, DTP, NCI, 2023)
